US20230123334A1, “AMINO LIPID COMPOUND, PREPARATION METHOD THEREFOR, AND APPLICATION THEREOF” (SHENZHEN SHENXIN BIOTECHNOLOGY CO., LTD., priority 2020, published 2023)

Each molecule was assayed on HEK293 cells (assay: Preliminary screening as mRNA vectors, EGFP mRNA transfection of HEK293 cells). Conditions: EGFP mRNA 50 ng per well, 96-well plates; percentage of GFP fluorescent cells relative to total number of cells (Hoechst).
Assay type: cell-based
Procedure, shortened: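 Screening format: EGFP mRNA transfection (50 ng/well) into HEK293 in 10% FBS-supplemented DMEM. Percent green fluorescent cells, normalised to Hoechst nuclear count, gave the value; Lipofectamine2000 was the reference transfectant.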

SMILES	Absolute mRNA transfection efficiency in HEK293 cells
CCCCCCCCCCCCCCCCSc1nc(NCCN2CCN(C)CC2)nc(N(CCCCCCCCCCCC)CCCCCCCCCCCC)n1 [D5S16^2N12]	0.1%
CCCCCCCCCCCCCCCCCCSc1nc(NCCN2CCN(C)CC2)nc(N(CCCCCCCCCCCC)CCCCCCCCCCCC)n1 [D5S18^2N12]	0.0%
CCCCCCCCCCCCN(CCCCCCCCCCCC)c1nc(NCCCN(C)C)nc(SCCCCCC)n1 [D6S6^2N12]	0.0%
CCCCCCCCCCCCN(CCCCCCCCCCCC)c1nc(NCCCN(C)C)nc(SCCCCCCC)n1 [D6S7^2N12]	0.9%
CCCCCCCCCCCCN(CCCCCCCCCCCC)c1nc(NCCCN(C)C)nc(SCCCCCCCC)n1 [D6S8^2N12]	1.5%
CCCCCCCCCCCCN(CCCCCCCCCCCC)c1nc(NCCCN(C)C)nc(SCCCCCCCCC)n1 [D6S9^2N12]	1.7%
CCCCCCCCCCCCN(CCCCCCCCCCCC)c1nc(NCCCN(C)C)nc(SCCCCCCCCCC)n1 [D6S10^2N12]	0.1%
CCCCCCCCCCCCN(CCCCCCCCCCCC)c1nc(NCCCN(C)C)nc(SCCCCCCCCCCC)n1 [D6S11^2N12]	3.2%
CCCCCCCCCCCCSc1nc(NCCCN(C)C)nc(N(CCCCCCCCCCCC)CCCCCCCCCCCC)n1 [D6S12^2N12]	2.4%
CCCCCCCCCCCCCCSc1nc(NCCCN(C)C)nc(N(CCCCCCCCCCCC)CCCCCCCCCCCC)n1 [D6S14^2N12]	0.1%
CCCCCCCCCCCCCCCSc1nc(NCCCN(C)C)nc(N(CCCCCCCCCCCC)CCCCCCCCCCCC)n1 [D6S15^2N12]	2.9%
CCCCCCCCCCCCCCCCSc1nc(NCCCN(C)C)nc(N(CCCCCCCCCCCC)CCCCCCCCCCCC)n1 [D6S16^2N12]	1.0%
CCCCCCCCCCCCCCCCCCSc1nc(NCCCN(C)C)nc(N(CCCCCCCCCCCC)CCCCCCCCCCCC)n1 [D6S18^2N12]	0.1%
CCCCCCCCCCCCN(CCCCCCCCCCCC)c1nc(NCCN(CC)CC)nc(SCCCCCC)n1 [D7S6^2N12]	0.2%
CCCCCCCCCCCCN(CCCCCCCCCCCC)c1nc(NCCN(CC)CC)nc(SCCCCCCC)n1 [D7S7^2N12]	1.2%
CCCCCCCCCCCCN(CCCCCCCCCCCC)c1nc(NCCN(CC)CC)nc(SCCCCCCCC)n1 [D7S8^2N12]	1.3%
CCCCCCCCCCCCN(CCCCCCCCCCCC)c1nc(NCCN(CC)CC)nc(SCCCCCCCCC)n1 [D7S9^2N12]	0.2%
CCCCCCCCCCCCN(CCCCCCCCCCCC)c1nc(NCCN(CC)CC)nc(SCCCCCCCCCC)n1 [D7S10^2N12]	0.0%
CCCCCCCCCCCCN(CCCCCCCCCCCC)c1nc(NCCN(CC)CC)nc(SCCCCCCCCCCC)n1 [D7S11^2N12]	0.7%

SMILES	Absolute mRNA transfection efficiency in HEK293 cells
CCCCCCCCCCCCSc1nc(NCCN(CC)CC)nc(N(CCCCCCCCCCCC)CCCCCCCCCCCC)n1 [D7S12^2N12]	1.9%
CCCCCCCCCCCCCCSc1nc(NCCN(CC)CC)nc(N(CCCCCCCCCCCC)CCCCCCCCCCCC)n1 [D7S14^2N12]	0.1%
CCCCCCCCCCCCCCCSc1nc(NCCN(CC)CC)nc(N(CCCCCCCCCCCC)CCCCCCCCCCCC)n1 [D7S15^2N12]	1.8%
CCCCCCCCCCCCCCCCSc1nc(NCCN(CC)CC)nc(N(CCCCCCCCCCCC)CCCCCCCCCCCC)n1 [D7S16^2N12]	0.8%
CCCCCCCCCCCCCCCCCCSc1nc(NCCN(CC)CC)nc(N(CCCCCCCCCCCC)CCCCCCCCCCCC)n1 [D7S18^2N12]	0.0%
CCCCCCCCCCCCN(CCCCCCCCCCCC)c1nc(NCCCN2CCOCC2)nc(SCCCCCC)n1 [D8S6^2N12]	0.0%
CCCCCCCCCCCCN(CCCCCCCCCCCC)c1nc(NCCCN2CCOCC2)nc(SCCCCCCC)n1 [D8S7^2N12]	0.6%
CCCCCCCCCCCCN(CCCCCCCCCCCC)c1nc(NCCCN2CCOCC2)nc(SCCCCCCCC)n1 [D8S8^2N12]	0.1%
CCCCCCCCCCCCN(CCCCCCCCCCCC)c1nc(NCCCN2CCOCC2)nc(SCCCCCCCCC)n1 [D8S9^2N12]	0.3%
CCCCCCCCCCCCN(CCCCCCCCCCCC)c1nc(NCCCN2CCOCC2)nc(SCCCCCCCCCC)n1 [D8S10^2N12]	0.0%
CCCCCCCCCCCCN(CCCCCCCCCCCC)c1nc(NCCCN2CCOCC2)nc(SCCCCCCCCCCC)n1 [D8S11^2N12]	0.4%
CCCCCCCCCCCCSc1nc(NCCCN2CCOCC2)nc(N(CCCCCCCCCCCC)CCCCCCCCCCCC)n1 [D8S12^2N12]	3.4%
CCCCCCCCCCCCCCSc1nc(NCCCN2CCOCC2)nc(N(CCCCCCCCCCCC)CCCCCCCCCCCC)n1 [D8S14^2N12]	0.1%
CCCCCCCCCCCCCCCSc1nc(NCCCN2CCOCC2)nc(N(CCCCCCCCCCCC)CCCCCCCCCCCC)n1 [D8S15^2N12]	2.9%
CCCCCCCCCCCCCCCCSc1nc(NCCCN2CCOCC2)nc(N(CCCCCCCCCCCC)CCCCCCCCCCCC)n1 [D8S16^2N12]	0.0%
CCCCCCCCCCCCCCCCCCSc1nc(NCCCN2CCOCC2)nc(N(CCCCCCCCCCCC)CCCCCCCCCCCC)n1 [D8S18^2N12]	0.0%
CCCCCCCCCCCCN(CCCCCCCCCCCC)c1nc(NCCCN2CCN(C)CC2)nc(SCCCCCC)n1 [D9S6^2N12]	0.1%
CCCCCCCCCCCCN(CCCCCCCCCCCC)c1nc(NCCCN2CCN(C)CC2)nc(SCCCCCCC)n1 [D9S7^2N12]	1.0%
CCCCCCCCCCCCN(CCCCCCCCCCCC)c1nc(NCCCN2CCN(C)CC2)nc(SCCCCCCCC)n1 [D9S8^2N12]	0.6%

SMILES	Absolute mRNA transfection efficiency in HEK293 cells
CCCCCCCCCCCCN(CCCCCCCCCCCC)c1nc(NCCCN2CCN(C)CC2)nc(SCCCCCCCCC)n1 [D9S9^2N12]	0.3%
CCCCCCCCCCCCN(CCCCCCCCCCCC)c1nc(NCCCN2CCN(C)CC2)nc(SCCCCCCCCCC)n1 [D9S10^2N12]	0.3%
CCCCCCCCCCCCN(CCCCCCCCCCCC)c1nc(NCCCN2CCN(C)CC2)nc(SCCCCCCCCCCC)n1 [D9S11^2N12]	0.0%
CCCCCCCCCCCCSc1nc(NCCCN2CCN(C)CC2)nc(N(CCCCCCCCCCCC)CCCCCCCCCCCC)n1 [D9S12^2N12]	0.8%
CCCCCCCCCCCCCCSc1nc(NCCCN2CCN(C)CC2)nc(N(CCCCCCCCCCCC)CCCCCCCCCCCC)n1 [D9S14^2N12]	0.1%
CCCCCCCCCCCCCCCSc1nc(NCCCN2CCN(C)CC2)nc(N(CCCCCCCCCCCC)CCCCCCCCCCCC)n1 [D9S15^2N12]	0.4%
CCCCCCCCCCCCCCCCSc1nc(NCCCN2CCN(C)CC2)nc(N(CCCCCCCCCCCC)CCCCCCCCCCCC)n1 [D9S16^2N12]	2.7%
CCCCCCCCCCCCCCCCCCSc1nc(NCCCN2CCN(C)CC2)nc(N(CCCCCCCCCCCC)CCCCCCCCCCCC)n1 [D9S18^2N12]	0.0%
CCCCCCCCCCCCN(CCCCCCCCCCCC)c1nc(NCC2CCN(C)CC2)nc(SCCCCCC)n1 [D10S6^2N12]	0.1%
CCCCCCCCCCCCN(CCCCCCCCCCCC)c1nc(NCC2CCN(C)CC2)nc(SCCCCCCC)n1 [D10S7^2N12]	1.4%
CCCCCCCCCCCCN(CCCCCCCCCCCC)c1nc(NCC2CCN(C)CC2)nc(SCCCCCCCC)n1 [D10S8^2N12]	1.5%
CCCCCCCCCCCCN(CCCCCCCCCCCC)c1nc(NCC2CCN(C)CC2)nc(SCCCCCCCCC)n1 [D10S9^2N12]	7.7%
CCCCCCCCCCCCN(CCCCCCCCCCCC)c1nc(NCC2CCN(C)CC2)nc(SCCCCCCCCCC)n1 [D10S10^2N12]	0.2%
CCCCCCCCCCCCN(CCCCCCCCCCCC)c1nc(NCC2CCN(C)CC2)nc(SCCCCCCCCCCC)n1 [D10S11^2N12]	0.0%
CCCCCCCCCCCCSc1nc(NCC2CCN(C)CC2)nc(N(CCCCCCCCCCCC)CCCCCCCCCCCC)n1 [D10S12^2N12]	3.4%
CCCCCCCCCCCCCCSc1nc(NCC2CCN(C)CC2)nc(N(CCCCCCCCCCCC)CCCCCCCCCCCC)n1 [D10S14^2N12]	0.2%
CCCCCCCCCCCCCCCSc1nc(NCC2CCN(C)CC2)nc(N(CCCCCCCCCCCC)CCCCCCCCCCCC)n1 [D10S15^2N12]	14.3%
CCCCCCCCCCCCCCCCSc1nc(NCC2CCN(C)CC2)nc(N(CCCCCCCCCCCC)CCCCCCCCCCCC)n1 [D10S16^2N12]	0.2%
CCCCCCCCCCCCCCCCCCSc1nc(NCC2CCN(C)CC2)nc(N(CCCCCCCCCCCC)CCCCCCCCCCCC)n1 [D10S18^2N12]	0.0%
